The NIST ThermoML archive (doi:10.1016/j.tca.2008.05.002)
± gives the expanded uncertainty stated by the source.

How the values were obtained:
[1] = for molar entropy: 101.33 kPa, Small (less than 1 g) adiabatic calorimetry; for Triple point temperature: Adiabatic calorimetry
[2] = Molar enthalpy of transition or fusion; details: Adiabatic calorimetry
[3] = molar heat capacity at constant pressure; details: 101.33 kPa, Small (less than 1 g) adiabatic calorimetry

CCCCn1cc[n+](C)c1.O=[N+]([O-])[O-] [1-butyl-3-methylimidazolium nitrate]
Details | molar entropy, [1] [J/K/mol] | molar heat capacity at constant pressure, [3] [J/K/mol]
5 K, Crystal 4 | 0.18 ± 0.035 | 0.536 ± 0.033
10 K, Crystal 4 | 1.52 ± 0.07 | 4.46 ± 0.091
15 K, Crystal 4 | 4.64 ± 0.12 | 11.93 ± 0.19
20 K, Crystal 4 | 9.379 ± 0.2 | 21.74 ± 0.28
25 K, Crystal 4 | 15.39 ± 0.27 | 32.7 ± 0.35
30 K, Crystal 4 | 22.34 ± 0.32 | 43.8 ± 0.32
35 K, Crystal 4 | 29.9 ± 0.37 | 54.44 ± 0.37
40 K, Crystal 4 | 37.83 ± 0.43 | 64.5 ± 0.42
45 K, Crystal 4 | 45.98 ± 0.5 | 73.88 ± 0.47
50 K, Crystal 4 | 54.22 ± 0.56 | 82.59 ± 0.52
55 K, Crystal 4 | 62.47 ± 0.61 | 90.63 ± 0.58
60 K, Crystal 4 | 70.67 ± 0.68 | 97.94 ± 0.58
70 K, Crystal 4 | 86.8 ± 0.83 | 111.1 ± 0.67
80 K, Crystal 4 | 102.4 ± 0.92 | 122.4 ± 0.75
90 K, Crystal 4 | 117.4 ± 1 | 132.2 ± 0.75
100 K, Crystal 4 | 131.8 ± 1.1 | 141 ± 0.75
110 K, Crystal 4 | 145.6 ± 1.2 | 149.2 ± 0.83
120 K, Crystal 4 | 158.9 ± 1.2 | 156.9 ± 0.83
130 K, Crystal 4 | 171.8 ± 1.3 | 164.4 ± 0.83
140 K, Crystal 4 | 184.2 ± 1.4 | 171.8 ± 0.92
150 K, Crystal 4 | 196.3 ± 1.5 | 179.1 ± 0.92
160 K, Crystal 4 | 208.1 ± 1.6 | 186.5 ± 0.92
170 K, Crystal 4 | 219.7 ± 1.6 | 194.1 ± 1
180 K, Crystal 4 | 231 ± 1.7 | 202 ± 1
190 K, Crystal 4 | 242.1 ± 1.7 | 210.1 ± 1.1
200 K, Crystal 4 | 253.1 ± 1.8 | 218.6 ± 1.1
210 K, Crystal 4 | 264 ± 1.9 | 227.3 ± 1.1
220 K, Crystal 4 | 274.7 ± 1.9 | 236.2 ± 1.2
230 K, Crystal 4 | 285.4 ± 2 | 245.1 ± 1.2
240 K, Crystal 4 | 296.1 ± 2.1 | 254 ± 1.2
250 K, Crystal 4 | 306.6 ± 2.2 | 262.9 ± 1.2
260 K, Crystal 4 | 317.1 ± 2.2 | 271.8 ± 1.2
270 K, Crystal 4 | 327.5 ± 2.2 | 280.7 ± 1.3
278.2 K, Crystal 3 | 343.5 ± 2.3 | 288 ± 1.3
278.2 K, Crystal 4 | 336 ± 2.3 | 288 ± 1.3
280 K, Crystal 3 | 345.3 ± 2.4 | 289.6 ± 1.3
285 K, Crystal 3 | 350.5 ± 2.4 | 294.1 ± 1.4
288.1 K, Crystal 2 | 354.9 ± 2.4 | 296.8 ± 1.4
288.1 K, Crystal 3 | 353.7 ± 2.4 | 296.8 ± 1.4
290 K, Crystal 2 | 356.9 ± 2.4 | 298.6 ± 1.4
292.2 K, Crystal 1 | 359.7 ± 2.5 | 300.5 ± 1.4
292.2 K, Crystal 2 | 359.2 ± 2.5 | 300.5 ± 1.4
295 K, Crystal 1 | 362.6 ± 2.5 | 303 ± 1.4
298.15 K, Crystal 1 | 365.8 ± 2.5 | 305.8 ± 1.4
300 K, Crystal 1 | 367.7 ± 2.5 | 307.5 ± 1.4
309.16 K, Crystal 1 | 377.1 ± 2.6 | 315.6 ± 1.5
309.16 K, Liquid | 435.3 ± 2.9 | 357.7 ± 1.7
310 K, Liquid | 436.3 ± 2.9 | 358 ± 1.7
320 K, Liquid | 447.7 ± 3 | 361.8 ± 1.7
330 K, Liquid | 458.9 ± 3.1 | 365.8 ± 1.7
340 K, Liquid | 469.9 ± 3.2 | 369.8 ± 1.7
350 K, Liquid | 480.7 ± 3.2 | 374.1 ± 1.7
360 K, Liquid | 491.2 ± 3.2 | 378.5 ± 1.7
370 K, Liquid | 501.6 ± 3.3 | 383 ± 1.7

Details | Molar enthalpy of transition or fusion, Crystal 1 [kcal/mol] | Molar enthalpy of transition or fusion, Crystal 2 [kcal/mol] | Molar enthalpy of transition or fusion, Crystal 3 [kcal/mol] | Molar enthalpy of transition or fusion, Crystal 4 [kcal/mol] | Triple point temperature, Crystal 1 [K] | Triple point temperature, Crystal 2 [K] | Triple point temperature, Crystal 3 [K] | Triple point temperature, Crystal 4 [K]
[1] | – | – | – | – | 309.16 ± 0.07 | 292.2 ± 0.1 | 288.1 ± 0.1 | 278.8 ± 0.1
[2] | 4.3 ± 0.0502 | 0.0359 ± 0.0239 | 0.086 ± 0.0239 | 0.497 ± 0.0239 | – | – | – | –
